# Results as given in patent US20220088195A1, “Prevention or mitigation of T-cell bispecific antibody-related adverse effects” (Hoffmann-La Roche Inc., priority 2020, published 2022).
# What was measured:
# Assay type in all cases: cell-based, human
# [1] = test system: IFN-γ, TNF-α and IL-2 release; assay: Cytokine release in SKM-1 killing assay with HLA-A2 WT-1-TCB, dasatinib added after 24 hours (Luminex); conditions: 48 hours; 100 nM dasatinib added at 24 hours
# Procedure: (§1) FIG. 3. In vitro killing assay set-up and timelines. PBMCs were co-cultured with SKM-1 target cells (E:T=10:1) and 10 nM HLA-A2 WT-1-TCB. Dasatinib (100 nM) was added after 24 hours of activation. PBMCs were labelled with CellTrace™ Violet (CTV) to allow T cell proliferation assessment.
# FIG. 5. Cytokine release. Supernatants were collected from the assay of FIG. 3 at 24h and 48h, and cytokines (IFN-γ (A), TNF-α (B) and IL-2 (C)) measured using a multiplex kit (Luminex). Mean+/−SD of 3 donors.
# (§2) To evaluate if dasatinib could act as a rapid and potent inhibitor of activated T cells, we first stimulated PBMCs on SKM-1 tumor cells with HLA-A2 WT-1-TCB for 24 hours. We then supplemented these activated effector cells with 100 nM dasatinib (FIG. 3).
# [2] = test system: IFN-γ, IL-2 and TNF-α release; assay: Cytokine release in supernatants of the CEA-TCB killing assay (Luminex, 96 hours); conditions: dasatinib above 12.5 nM, 1 nM CEA-TCB
# Procedure: Cytokine release. Supernatant were collected at the endpoint (96 hours) of the assay in FIG. 1 and cytokines ((A) IFNγ, (B) IL-2, (C) TNF-α) measured by multiplex cytokine analysis (Luminex). 1 nM CEA-TCB, 1 donor.
# CD4+ and CD8+ T cells = assay: T cell activation (CD25, CD69 by FACS) in SKM-1 killing assay with HLA-A2 WT-1-TCB, dasatinib added after 24 hours; conditions: 48 hours; 100 nM dasatinib added at 24h; 10 nM HLA-A2 WT-1-TCB
# Procedure: as §1
# FIG. 4. T cell activation. CD25 and CD69 expression on CD4+ and CD8+ T cells was measured by FACS after 24h and 48h of activation in the presence and absence of dasatinib, according to the assay of FIG. 3. (A) CD25 expression on CD8+ T cells, (B) CD25 expression on CD4+ T-cells, (C) CD69 expression on CD8+ T cells, (D) CD69 expression on CD4+ T cells.
# as §2
# Upon addition of 100 nM dasatinib at 24h, expression of early activation marker CD69 and late activation marker CD25 on CD4+ and CD8+ T cells at 48 hours was found at an intermediate level between expression measured at 24 hours and expression measured at 48 hours in samples with no dasatinib treatment (FIG. 4).
# MKN45 NLR target cells = assay: Incucyte real time killing assay, PBMCs + MKN45 NLR target cells + CEA-TCB with escalating dasatinib
# Procedure: FIG. 1. Real time killing of red fluorescent A375 cells loaded with RMF peptides by 10 nM HLA-A2 WT-1-TCB (A) and of red fluorescent MKN45 cells by 1 nM CEA-TCB (B) in the presence of different dasatinib concentrations ranging from 100 nM to 0 nM. (A) A375 NucLight Red (NLR) target cells were pulsed with RMF peptides (2 hours before killing assay) and co-cultured with HLA-A2 WT1-TCB, dasatinib (dasa) and PBMCs, effector to target ratio (E:T)=10:1 (E:T=50 000 PBMCs:5000 target cells). Killing was followed by Incucyte® (1 scan every 3 hours, zoom 10×, phase and red 400 ms acquisition time). % Killing was measured by normalizing total red area with values at t=0 hour and target cells+PBMCs+dasatinib (without TCB) control wells for each time point. Means of technical replicates+/−SEM for 1 donor. (B) MKN45 NLR target cells were co-cultured with CEA TCB, dasatinib and PBMCs, E:T=10:1 (E:T=50 000 PBMCs:5000 target cells). Killing was followed by Incucyte (1 scan every 3 hours, zoom 10×, phase and red 400 ms acquisition time). % Killing was measured by normalizing total red area with values at t=0 hour and target cells+PBMCs+dasatinib control wells for each time point. Means of technical replicates+/−SEM for 1 donor.
# To assess the inhibitory effect of dasatinib on TCB-mediated target-cell killing, we conducted killing assays using peripheral blood mononuclear cells (PBMCs), NucLight Red (NLR) target-cells and respective TCB in media supplemented with escalating concentrations of dasatinib. The Incucyte® system (Essen Bioscience) was used to capture the loss of red fluorescent protein signal over time as a readout of target-cell killing.
# [3] = test system: IFN-γ, IL-2 and TNF-α release; assay: Cytokine release after second stimulation with HLA-A2 WT-1-TCB in the SKM-1 assay (Luminex); conditions: 100 nM dasatinib, versus positive control ON/ON
# Procedure: FIG. 12. Cytokine release after the second stimulation with HLA-A2 WT-1-TCB with and without dasatinib. Supernatants from the killing assay of FIG. 8 were collected 24 hours after the second stimulation and IFN-γ (A), TNF-α (B) and IL-2 (C) were measured with a multiplex cytokine kit (Luminex technology). n=3 donors.
# To assess whether dasatinib can efficiently prevent TCB-mediated target cell killing by activated T cells, we set up an in vitro killing assay with two stimulation steps, mimicking an ON/OFF switch. During the first stimulation, PBMCs were activated on carboxyfluorescein succinimidyl ester (CFSE)-labelled SKM-1 tumors cells with HLA-A2 WT-1-TCB in the absence of dasatinib (ON). During the second stimulation, activated PBMCs together with dead CFSE labelled SKM-1 tumors cells were washed and re-stimulated by HLA-A2 WT-1-TCB on fresh CTV labelled SKM-1 tumor cells in the presence of 100 nM dasatinib (OFF). The use of CFSE and CTV labelled SKM-1 tumors allowed to differentiate tumor cells used for first and second stimulation by flow cytometry (FIG. 8). […] Consistently, T cells were activated and functional before the addition of dasatinib in the system. […]
smiles,measurement,setting,value
"Cc1nc(Nc2ncc(C(=O)Nc3c(C)cccc3Cl)s2)cc(N2CCN(CCO)CC2)n1 [dasatinib, N-(2-chloro-6-methylphenyl)-2-[[6-[4-(2-hydroxyethyl)-1-piperazinyl]-2-methyl-4-pyrimidinyl]amino]-5-thiazole carboxamide monohydrate]","release of IFN-γ, TNF-α and IL-2 from activated T cells",[1],rapidly prevented the release of cytokines
same,"release of IFN-γ, IL-2 and TNF-α",[2],prevented the release
same,CD25 and CD69 expression on CD4+ and CD8+ T cells,CD4+ and CD8+ T cells,rapidly blocked the expression of phenotypic activation markers
same,inhibition at 0.0125 µM,"MKN45 NLR target cells; Homo sapiens, MKN-45, 12.5 nM dasatinib, 1 nM CEA-TCB, read-out: inhibition of target-cell killing",69%
same,inhibition at 0.05 µM,"MKN45 NLR target cells; Homo sapiens, MKN-45, 50 nM (24.4 ng/mL) dasatinib, 1 nM CEA-TCB, read-out: inhibition of target-cell killing",88.2%
same,inhibition at 0.1 µM,"MKN45 NLR target cells; Homo sapiens, MKN-45, 100 nM (48.8 ng/mL) dasatinib, 1 nM CEA-TCB, read-out: inhibition of target-cell killing",90.4%
same,threshold in vitro concentration for preventing T cell mediated target-cell lysis,"MKN45 NLR target cells; PBMCs stimulated with both TCB (CEA-TCB, HLA-A2 WT-1-TCB)",12.5 nM
same,inhibition of killing,"MKN45 NLR target cells; dasatinib concentrations below 12.5 nM, 1 nM CEA-TCB",only partially inhibited killing
same,"IFN-γ, IL-2 and TNF-α release upon re-stimulation",[3],fully inhibited
